Results published in patent US20130217721A1, “COMPOSITIONS AND METHODS FOR DETECTION AND TREATMENT OF B-RAF INHIBITOR-RESISTANT MELANOMAS” (The Regents of the University of California, priority 2010, published 2013).
Where “and” joins values, the source holds several entries; their conditions need not be identical. Equal entries are not always repeated. Entries after “also recorded” stand apart in the source; their conditions may differ.

Columns and labels:
[1] = target: p61 BRAF(V600E) (Homo sapiens, UniProt P15056, DEL169-380/V600E); test: ERK signaling in cells ectopically expressing p61 BRAF(V600E); format: cell-based
Text: FIGS. 6A-6E. […] FIG. 6A. PCR analysis of BRAF in cDNA from parental (P) and C3 cells. Primers were designed at the N-terminus and C-terminus of BRAF. […] Abbreviations: CR1: Conserved Region 1, CR2: Conserved Region 2, CR3: Conserved Region 3, RBD: RAS-binding domain, CRD: Cystine-Rich Domain, AS: Activation Segment, KD: Kinase Domain. FIG. 6B. Full length wild-type BRAF and the 1.7 kb/61 kd splice variant of BRAF(V600E) were cloned into a pcDNA3.1 vector with a FLAG tag at the C-terminus and expressed in 293H cells. The effect of PLX4032 (2 μM for 1 hour) on ERK signaling in the presence of p61 BRAF(V600E) was analyzed by western blot for pMEK and pERK. FIG. 6C. To compare levels of dimerization, 293H cells co-expressing FLAG tagged and V5-tagged p61 BRAF(V600E), full length BRAF(V600E) and the corresponding dimerization-deficient mutants p61 BRAF(V600E/R509H) and BRAF(V600E/R509H) were lysed followed by immunoprecipitation with FLAG antibody. Western blots with V5 or FLAG antibodies were performed as indicated. FIG. 6D. Comparison of MEK/ERK activation and sensitivity of ERK signaling to PLX4032 (2 μM for 1 hour) in 293H cells expressing either Flag-tagged BRAF(V600E) or the dimerization mutant Flag-tagged BRAF(V600E/R509H). FIG. 6E. Constructs expressing V5-tagged BRAF(V600E), p61 BRAF(V600E) or the dimerization mutant p61 BRAF(V600E/R509H) were transfected into 293H cells and treated with DMSO or 2 μM PLX4032 for 1 hour.
Plasmids/Trasfections. Flag-tagged BRAF constructs have been described previously^4. All other plasmids were created using standard cloning methods, with pcDNA3.1 (Invitrogen) as a vector. Mutations were introduced using the site-directed Mutagenesis Kit (Stratagene). For transfection studies, cells were seeded at 35 mm or 100 mm plates and transfected the following day using Lipofectamine 2000 (Invitrogen). Cells were collected 24 hours later for subsequent analysis.

[2] = system: SKMEL-239; test: Cell cycle and apoptosis analysis; format: cell-based, human; details: SKMEL-239 parental, 2 μM PLX4032
Experimental: Cell proliferation and cell cycle analysis. All melanoma cell lines were generated by A. Houghton (MSKCC) or obtained from ATCC. 293H cells were obtained from Invitrogen. Cells were maintained in DMEM (293H and MEFs), or RPMI (all other cell lines) supplemented with 2 mM glutamine, antibiotics and 10% fetal bovine serum. We confirmed by DNA fingerprinting^20 that all PLX4032-resistant, SKMEL-239 clones were derived from the same patient, thus excluding the possibility of contamination (Table 6). For proliferation assays, cells were plated in 6 well plates and 24 hours later were treated with varying concentrations of inhibitors as indicated. IC50 values were calculated using Graph Pad Prism v.5. For cell cycle and apoptosis studies, cells were seeded in 6 well dishes the day prior to drug treatment. For analysis, both adherent and floating cells were harvested and stained with ethidium bromide as described previously^21.

[3] = system: M229, M238 and M249 parental cell lines; details: B-RAF(V600E)-positive parental cell lines, in vitro and in vivo; cited from earlier work
[4] = system: M249 R sub-line (M249 R4); test: Cell survival / proliferation assay (72 h); format: cell-based, human; details: M249 R sub-lines
Experimental: Cells were maintained in Dulbecco's modified Eagle medium (DMEM) with 10 or 20% fetal bovine serum and glutamine. shRNAs were sub-cloned into the lentiviral vector pLL3.7 and infections carried out with protamine sulphate. Stocks of PLX4032 (Plexxikon) and AZD6244 (commercially available) were made in DMSO. Cells were quantified using CellTiter-GLO Luminescence (Promega).
Cell proliferation experiments were performed in a 96-well format (five replicates), and baseline quantification performed at 24 h after cell seeding along with initiation of drug treatments (72 h). Stocks and dilutions of PLX4032 (Plexxikon), AZD6244 (Selleck Chemicals) and U0126 (Promega) were made in DMSO. siRNA pool (Dharmacon) transfections were carried out in 384-well format. TransIT transfection reagent (Mirus) was added to each well and incubated at 37° C. for 20 min. Subsequently, cells were reverse transfected, and the mixture was incubated for 51-61 h at 37° C. Cells were quantified using CellTiter 96 Aqueous One Solution (Promega) or CellTiter-GLO Luminescence (Promega) following the manufacturer's recommendations.
(§1) Cell culture, infections and drug treatments. Cells were maintained in DMEM with 10 or 20% fetal bovine serum and glutamine. shRNAs for B-RAF and C-RAF were sub-cloned into the lentiviral vector pLL3.7; pBabe B-RAF (V600E) was purchase (plasmid 17544, Addgene); viral supernatants generated by co-transfection with three packaging plasm ids into HEK293T cells; and infections carried out with protamine sulfate. Stocks and dilutions of PLX4032 (Plexxikon, Berkeley, Calif.) and AZD6244 (commercially available) were made in DMSO. Cells were quantified using CellTiter-GLO Luminescence (Promega) or crystal violet staining followed by NIH Image J quantification.

[5] = system: melanoma tumors; test: Melanoma patients treated with vemurafenib (PLX4032): best response and PFS (Table 5); format: in vivo, human; details: individual patient; patients 1-19 acquired resistance, 20-21 primary resistant
[6] = system: M395 R; test: Cell survival assay (72 h); format: cell-based, human
Text: as §1

[7] = target: B-RAF(V600E) kinase (Homo sapiens, UniProt P15056, V600E); test: In vitro kinase assay of immunoprecipitated B-RAF; format: biochemical; details: from resistant sub-lines and short-term cultures compared with parental cell lines; 1 μM PLX4032, 30 min at 30° C.
Text: Cells were harvested and protein lysates prepared in a NP40-based buffer before subjected to immunoprecipitation (IP). […] The beads were subsequently pelleted and the supernatant resuspended in sample buffer for western blotting to detect p-MEK and total MEK.

[8] = system: pERK levels in M395 R; test: Western blot of pERK after acute vemurafenib titration; format: cell-based, human; details: vemurafenib titration 1 h after a 24 h drug withdrawal

Sequence of p61 BRAF(V600E) (P15056 with tags, fused parts or gaps DEL169-380/V600E): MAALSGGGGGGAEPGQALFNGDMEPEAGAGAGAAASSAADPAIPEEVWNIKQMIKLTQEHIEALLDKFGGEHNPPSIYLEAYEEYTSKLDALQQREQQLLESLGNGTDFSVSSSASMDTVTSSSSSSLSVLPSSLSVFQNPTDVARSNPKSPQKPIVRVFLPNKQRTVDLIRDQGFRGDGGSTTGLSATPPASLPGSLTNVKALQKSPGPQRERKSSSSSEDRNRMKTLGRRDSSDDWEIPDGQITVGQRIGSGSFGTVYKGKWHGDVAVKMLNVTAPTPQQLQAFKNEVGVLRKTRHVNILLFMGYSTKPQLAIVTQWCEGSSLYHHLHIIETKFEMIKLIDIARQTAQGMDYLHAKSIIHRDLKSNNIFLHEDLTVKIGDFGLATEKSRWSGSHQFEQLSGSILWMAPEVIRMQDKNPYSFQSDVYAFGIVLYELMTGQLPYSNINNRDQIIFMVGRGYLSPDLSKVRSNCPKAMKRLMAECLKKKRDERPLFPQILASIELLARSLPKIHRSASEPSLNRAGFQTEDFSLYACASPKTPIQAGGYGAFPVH
Sequence of B-RAF(V600E) kinase (P15056 whole entry V600E): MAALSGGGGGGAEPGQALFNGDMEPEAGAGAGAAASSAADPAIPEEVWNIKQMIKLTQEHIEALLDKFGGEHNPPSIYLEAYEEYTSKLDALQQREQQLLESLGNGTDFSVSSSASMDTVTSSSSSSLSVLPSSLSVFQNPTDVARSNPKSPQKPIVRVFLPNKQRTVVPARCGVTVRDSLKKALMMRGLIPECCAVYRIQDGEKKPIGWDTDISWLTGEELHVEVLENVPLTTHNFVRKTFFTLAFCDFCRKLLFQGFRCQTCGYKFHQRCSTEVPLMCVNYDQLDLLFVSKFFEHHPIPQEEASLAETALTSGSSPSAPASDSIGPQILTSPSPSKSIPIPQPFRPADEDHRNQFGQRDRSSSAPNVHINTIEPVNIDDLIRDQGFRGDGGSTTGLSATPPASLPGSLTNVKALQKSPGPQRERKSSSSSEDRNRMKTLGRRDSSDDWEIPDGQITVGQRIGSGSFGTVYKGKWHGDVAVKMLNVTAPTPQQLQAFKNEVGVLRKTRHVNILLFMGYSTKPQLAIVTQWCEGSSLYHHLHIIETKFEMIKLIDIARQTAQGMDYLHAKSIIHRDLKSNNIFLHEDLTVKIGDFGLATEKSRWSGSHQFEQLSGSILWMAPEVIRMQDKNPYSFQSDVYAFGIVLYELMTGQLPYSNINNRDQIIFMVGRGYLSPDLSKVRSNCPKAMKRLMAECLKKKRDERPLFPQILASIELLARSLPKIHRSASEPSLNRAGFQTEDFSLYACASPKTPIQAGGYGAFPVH

CCCS(=O)(=O)Nc1ccc(F)c(C(=O)c2c[nH]c3ncc(-c4ccc(Cl)cc4)cc23)c1F [PLX4032]
sensitivity of ERK signaling (pMEK, pERK) ([1]; 293H cells, 2 μM PLX4032 for 1 hour): resistant; also recorded: insensitive
inhibition of ERK signaling ([1]; HT-29 (BRAF(V600E)) colorectal carcinoma cells expressing p61 BRAF(V600E)): failure of PLX4032 to effectively inhibit ERK signaling
inhibition of ERK signaling ([1]; parental SKMEL-239 cells expressing p61 BRAF(V600E)): failure of PLX4032 to effectively inhibit ERK signaling
cell cycle effect [2]: accumulation of cells in G1
cell death [2]: significant induction of cell death
sensitivity to PLX4032-mediated growth inhibition [3]: exquisitely sensitive
GI50 ([4]; Homo sapiens, not reached up to 10 μM, read-out: GI50, concentration of drug that inhibits growth of cells by 50%): > 10 µM
growth at low PLX4032 concentrations ([4]; in contrast to parental cells): paradoxically enhanced growth
Best Response [5]: −72% (2×) and −20% and −70% (2×) and −22% and −53% (2×) and −31% (2×) and −60% and −47% and −43% and −25% and −74% and −24% and −37% and −100% and −42% and +8%
PFS [5]: 464 days and 304 days and 104 days and 161 days and 137 days and 238 days and 212 days and 373 days and 148 days and 299 days and 107 days and 149 days and 126 days and 279 days and 118 days and 241 days and 168 days (2×) and 79 days and 50 days and 106 days
growth sensitivity to vemurafenib treatment ([6]; M395 R (amplified V600EB-RAF)): highly resistant
drug sensitivity at high vemurafenib dosing ([6]; vemurafenib from 1 to 50 µM, 72 h, versus M249 R4): highly sensitive
sensitivity of immunoprecipitated B-RAF kinase activities [7]: similarly sensitive
pERK levels, sensitivity to acute V600EB-RAF inhibition [8]: highly resistant
